Source: paper PMC4175002, “The Design and Synthesis of Potent and Selective Inhibitors of Trypanosoma brucei Glycogen Synthase Kinase 3 for the Treatment of Human African Trypanosomiasis” (Journal of Medicinal Chemistry, 2014)

Tests used:
Format in all cases: biochemical
HsGSK3β = HsGSK3β (Homo sapiens, UniProt P49841); assay: Radiometric Flashplate potency assay, HsGSK3β; conditions: ratio of IC50 values
Protocol: For compound potency determinations, a radiometric 96-well Flashplate assay (PerkinElmer) was adopted. Compounds were solubilized in DMSO at a top concentration of 3 mM and serially diluted to achieve 10-point titration of final assay concentrations from 30 μM to 0.3 nM with a final DMSO concentration of 1% (v/v). The reaction mixtures contained 1 μM biotinylated GSP2 substrate, 1 μM ATP, 3.7 KBq/well [γ-33P]-ATP and 2.5 nM TbGSK3 in the TbGSK3 kinase assay buffer. GSK3 inhibitors were screened for selectivity assessment also against HsGSK3β. For HsGSK3 assay, the reaction mixes contained 1 μM biotinylated GSP2 substrate, 2 μM ATP, 7.4 KBq/well [γ-33P]-ATP and 15 nM HsGSK3β in the TbGSK3 kinase assay buffer (25 mM Tris-HCl, pH 7.5, 10 mM MgCl2, 5 mM DTT, 0.02% CHAPS, 2 U/mL heparin). For HsCDK2/cyclin A assay, the reaction mixtures contained 1 mM CDK5 biotinylated peptide substrate (Biotin-C6-PKTPKKAKKL), 1 μM ATP, 7.4 KBq/well [γ-^33P]-ATP and 2 nM HsCDK2/cyclin A in the kinase assay buffer (50 mM Tris-HCl, pH 7.5, 10 mM MgCl2, 2 mM DTT, 100 mM NaCl, 0.2 mM EGTA, 0.02% (v/v) Brij35).
This implies that a difference of >0.3 in pIC50 can be considered statistically significant for this assay.

PKA = molecular target: T1, PKA (Homo sapiens, UniProt P17612); assay: Mammalian kinase profiling (DSTT panel); conditions: 10 μM; average percentage of remaining activity
T1 construct: purchased Division of Signal Transduction Therapy (DSTT), University of Dundee
Protocol: (§1) To assess the selectivity of the aminopyrazole inhibitors, remaining activity at 10 μM concentration was measured for compounds 4f, 4m, and 4y against a panel of 80 human PKs and for compound 9g against 124 human PKs. […] Compound 4m inhibited only two PKs, namely GSK3β and CDK2, at more than 80%.
(§2) Selected compounds were screened against a panel of mammalian kinases routinely run by the Division of Signal Transduction Therapy (DSTT) at the University of Dundee in duplicate at 10 μM.[32] Enzymes included in the panel and assay conditions are reported in the literature. All biochemical assays are run below the Km^app for the ATP for each enzyme, allowing comparison of inhibition across the panel.

PAK4 = molecular target: T2, PAK4 (Homo sapiens, UniProt O96013); assay: Mammalian kinase profiling (DSTT panel); conditions: 10 μM; average percentage of remaining activity
T2 construct: purchased Division of Signal Transduction Therapy (DSTT), University of Dundee
Protocol: as §1, §2

IRR = molecular target: T3, IRR (Homo sapiens, UniProt P14616); assay: Mammalian kinase profiling (DSTT panel); conditions: 10 μM; average percentage of remaining activity
T3 construct: purchased Division of Signal Transduction Therapy (DSTT), University of Dundee
Protocol: as §1, §2

CAMK1 = molecular target: T4, CAMK1 (Homo sapiens, UniProt Q14012); assay: Mammalian kinase profiling (DSTT panel); conditions: 10 μM; average percentage of remaining activity
T4 construct: purchased Division of Signal Transduction Therapy (DSTT), University of Dundee
Protocol: as §1, §2

YES1 = molecular target: T5, YES1 (Homo sapiens, UniProt P07947); assay: Mammalian kinase profiling (DSTT panel); conditions: 10 μM; average percentage of remaining activity
T5 construct: purchased Division of Signal Transduction Therapy (DSTT), University of Dundee
Protocol: as §1, §2

CK1 = molecular target: T6, CK1 (Homo sapiens, UniProt P48730); assay: Mammalian kinase profiling (DSTT panel); conditions: 10 μM; average percentage of remaining activity
T6 construct: purchased Division of Signal Transduction Therapy (DSTT), University of Dundee
Protocol: as §1, §2

EPH-B3 = molecular target: T7, EPH-B3 (Homo sapiens, UniProt P54753); assay: Mammalian kinase profiling (DSTT panel); conditions: 10 μM; average percentage of remaining activity
T7 construct: purchased Division of Signal Transduction Therapy (DSTT), University of Dundee
T7 sequence (P54753 34-998): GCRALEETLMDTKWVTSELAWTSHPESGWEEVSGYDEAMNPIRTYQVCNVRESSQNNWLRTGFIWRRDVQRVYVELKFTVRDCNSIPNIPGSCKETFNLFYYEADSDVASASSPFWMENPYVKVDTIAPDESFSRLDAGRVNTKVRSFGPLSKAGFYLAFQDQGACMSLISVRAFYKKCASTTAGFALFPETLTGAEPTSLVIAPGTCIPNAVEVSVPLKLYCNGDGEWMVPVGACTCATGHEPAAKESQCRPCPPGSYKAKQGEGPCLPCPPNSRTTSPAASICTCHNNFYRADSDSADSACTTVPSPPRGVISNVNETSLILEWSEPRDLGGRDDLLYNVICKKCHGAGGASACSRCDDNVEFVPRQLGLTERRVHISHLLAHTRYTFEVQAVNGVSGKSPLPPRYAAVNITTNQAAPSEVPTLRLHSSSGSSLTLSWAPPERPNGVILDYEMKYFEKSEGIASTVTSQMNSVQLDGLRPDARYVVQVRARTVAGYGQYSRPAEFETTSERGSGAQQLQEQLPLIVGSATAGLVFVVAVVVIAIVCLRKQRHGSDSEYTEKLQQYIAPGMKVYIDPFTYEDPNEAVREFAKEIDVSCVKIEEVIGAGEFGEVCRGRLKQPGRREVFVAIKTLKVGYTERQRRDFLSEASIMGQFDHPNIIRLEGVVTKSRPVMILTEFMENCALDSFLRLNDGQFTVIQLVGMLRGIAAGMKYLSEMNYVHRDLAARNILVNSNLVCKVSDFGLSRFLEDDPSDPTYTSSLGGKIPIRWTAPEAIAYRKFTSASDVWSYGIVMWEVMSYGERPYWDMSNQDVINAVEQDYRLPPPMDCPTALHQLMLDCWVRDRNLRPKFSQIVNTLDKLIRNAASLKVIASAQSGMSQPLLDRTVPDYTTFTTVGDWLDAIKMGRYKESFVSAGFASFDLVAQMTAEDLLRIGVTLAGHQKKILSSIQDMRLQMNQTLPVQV
Protocol: as §1, §2

NEK2a = molecular target: T8, NEK2a (Homo sapiens, UniProt P51955); assay: Mammalian kinase profiling (DSTT panel); conditions: 10 μM; average percentage of remaining activity
T8 construct: purchased Division of Signal Transduction Therapy (DSTT), University of Dundee
T8 sequence (P51955 1-445): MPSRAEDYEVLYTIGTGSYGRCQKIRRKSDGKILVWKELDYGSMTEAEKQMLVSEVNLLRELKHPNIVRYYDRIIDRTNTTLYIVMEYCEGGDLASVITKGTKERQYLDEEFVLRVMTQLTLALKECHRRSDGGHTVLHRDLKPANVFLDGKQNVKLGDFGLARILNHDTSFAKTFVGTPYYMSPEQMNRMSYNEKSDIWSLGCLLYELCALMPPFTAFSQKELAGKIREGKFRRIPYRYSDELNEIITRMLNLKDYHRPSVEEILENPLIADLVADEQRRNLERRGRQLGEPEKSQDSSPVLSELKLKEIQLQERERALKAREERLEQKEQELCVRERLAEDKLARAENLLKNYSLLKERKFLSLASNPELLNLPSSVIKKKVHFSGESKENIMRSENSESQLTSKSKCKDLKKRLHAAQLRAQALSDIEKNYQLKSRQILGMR
Protocol: as §1, §2

MSK1 = molecular target: T9, MSK1 (Homo sapiens, UniProt O75582); assay: Mammalian kinase profiling (DSTT panel); conditions: 10 μM; average percentage of remaining activity
T9 construct: purchased Division of Signal Transduction Therapy (DSTT), University of Dundee
Protocol: as §1, §2

T6 sequence (P48730 whole entry): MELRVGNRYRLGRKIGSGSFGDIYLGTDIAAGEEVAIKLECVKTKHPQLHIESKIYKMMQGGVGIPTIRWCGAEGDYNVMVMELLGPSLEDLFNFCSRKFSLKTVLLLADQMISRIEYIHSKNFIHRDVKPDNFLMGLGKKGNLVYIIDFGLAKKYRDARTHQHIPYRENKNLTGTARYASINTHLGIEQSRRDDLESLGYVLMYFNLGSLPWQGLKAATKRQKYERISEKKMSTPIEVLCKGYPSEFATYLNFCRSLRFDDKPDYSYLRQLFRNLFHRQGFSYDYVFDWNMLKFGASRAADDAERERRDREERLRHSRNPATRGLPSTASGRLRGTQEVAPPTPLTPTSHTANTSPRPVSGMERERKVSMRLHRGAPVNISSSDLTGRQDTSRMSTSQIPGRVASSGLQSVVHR
T4 sequence (Q14012 whole entry): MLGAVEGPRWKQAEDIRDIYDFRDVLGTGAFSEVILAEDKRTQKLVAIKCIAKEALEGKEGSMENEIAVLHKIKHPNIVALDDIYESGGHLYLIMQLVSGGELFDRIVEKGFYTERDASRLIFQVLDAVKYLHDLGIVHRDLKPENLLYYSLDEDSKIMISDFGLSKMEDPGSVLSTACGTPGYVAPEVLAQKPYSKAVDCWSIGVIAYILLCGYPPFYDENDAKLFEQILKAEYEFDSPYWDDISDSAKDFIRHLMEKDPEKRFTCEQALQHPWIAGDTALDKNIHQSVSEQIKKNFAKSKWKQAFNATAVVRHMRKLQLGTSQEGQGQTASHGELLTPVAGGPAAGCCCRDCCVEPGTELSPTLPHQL
Chain of HsGSK3β (P49841 whole entry): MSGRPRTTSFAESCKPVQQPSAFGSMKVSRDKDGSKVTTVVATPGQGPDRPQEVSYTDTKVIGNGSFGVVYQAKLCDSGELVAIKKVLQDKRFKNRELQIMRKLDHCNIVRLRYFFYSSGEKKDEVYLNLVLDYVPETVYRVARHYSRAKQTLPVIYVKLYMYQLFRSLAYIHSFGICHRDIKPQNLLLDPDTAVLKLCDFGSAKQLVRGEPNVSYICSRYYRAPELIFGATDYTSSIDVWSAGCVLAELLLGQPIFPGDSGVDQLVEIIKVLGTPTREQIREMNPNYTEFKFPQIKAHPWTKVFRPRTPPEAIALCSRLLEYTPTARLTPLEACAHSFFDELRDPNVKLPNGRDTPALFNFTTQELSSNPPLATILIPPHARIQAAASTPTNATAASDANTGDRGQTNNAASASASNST
T9 sequence (O75582 whole entry): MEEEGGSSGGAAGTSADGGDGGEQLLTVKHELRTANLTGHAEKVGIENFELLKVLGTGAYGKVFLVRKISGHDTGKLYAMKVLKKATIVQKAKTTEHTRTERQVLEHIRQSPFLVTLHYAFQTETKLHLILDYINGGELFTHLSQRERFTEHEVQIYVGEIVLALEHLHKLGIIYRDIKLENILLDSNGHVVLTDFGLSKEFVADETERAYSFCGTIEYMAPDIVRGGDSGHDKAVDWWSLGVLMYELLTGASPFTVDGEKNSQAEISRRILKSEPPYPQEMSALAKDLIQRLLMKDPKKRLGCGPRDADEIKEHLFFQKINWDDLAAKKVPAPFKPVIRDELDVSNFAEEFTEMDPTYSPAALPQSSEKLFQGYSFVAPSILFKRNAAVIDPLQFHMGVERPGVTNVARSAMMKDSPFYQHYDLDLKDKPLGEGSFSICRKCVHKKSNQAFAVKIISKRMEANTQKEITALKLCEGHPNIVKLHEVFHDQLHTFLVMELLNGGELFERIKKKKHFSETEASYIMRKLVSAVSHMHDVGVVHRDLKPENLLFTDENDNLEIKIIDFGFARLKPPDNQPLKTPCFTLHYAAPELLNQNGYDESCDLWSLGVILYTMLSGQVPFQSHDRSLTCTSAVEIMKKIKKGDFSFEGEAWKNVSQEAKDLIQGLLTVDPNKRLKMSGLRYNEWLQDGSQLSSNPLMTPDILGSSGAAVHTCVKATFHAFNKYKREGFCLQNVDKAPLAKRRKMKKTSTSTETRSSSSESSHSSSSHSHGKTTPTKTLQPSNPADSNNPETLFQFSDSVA
T3 sequence (P14616 27-1297): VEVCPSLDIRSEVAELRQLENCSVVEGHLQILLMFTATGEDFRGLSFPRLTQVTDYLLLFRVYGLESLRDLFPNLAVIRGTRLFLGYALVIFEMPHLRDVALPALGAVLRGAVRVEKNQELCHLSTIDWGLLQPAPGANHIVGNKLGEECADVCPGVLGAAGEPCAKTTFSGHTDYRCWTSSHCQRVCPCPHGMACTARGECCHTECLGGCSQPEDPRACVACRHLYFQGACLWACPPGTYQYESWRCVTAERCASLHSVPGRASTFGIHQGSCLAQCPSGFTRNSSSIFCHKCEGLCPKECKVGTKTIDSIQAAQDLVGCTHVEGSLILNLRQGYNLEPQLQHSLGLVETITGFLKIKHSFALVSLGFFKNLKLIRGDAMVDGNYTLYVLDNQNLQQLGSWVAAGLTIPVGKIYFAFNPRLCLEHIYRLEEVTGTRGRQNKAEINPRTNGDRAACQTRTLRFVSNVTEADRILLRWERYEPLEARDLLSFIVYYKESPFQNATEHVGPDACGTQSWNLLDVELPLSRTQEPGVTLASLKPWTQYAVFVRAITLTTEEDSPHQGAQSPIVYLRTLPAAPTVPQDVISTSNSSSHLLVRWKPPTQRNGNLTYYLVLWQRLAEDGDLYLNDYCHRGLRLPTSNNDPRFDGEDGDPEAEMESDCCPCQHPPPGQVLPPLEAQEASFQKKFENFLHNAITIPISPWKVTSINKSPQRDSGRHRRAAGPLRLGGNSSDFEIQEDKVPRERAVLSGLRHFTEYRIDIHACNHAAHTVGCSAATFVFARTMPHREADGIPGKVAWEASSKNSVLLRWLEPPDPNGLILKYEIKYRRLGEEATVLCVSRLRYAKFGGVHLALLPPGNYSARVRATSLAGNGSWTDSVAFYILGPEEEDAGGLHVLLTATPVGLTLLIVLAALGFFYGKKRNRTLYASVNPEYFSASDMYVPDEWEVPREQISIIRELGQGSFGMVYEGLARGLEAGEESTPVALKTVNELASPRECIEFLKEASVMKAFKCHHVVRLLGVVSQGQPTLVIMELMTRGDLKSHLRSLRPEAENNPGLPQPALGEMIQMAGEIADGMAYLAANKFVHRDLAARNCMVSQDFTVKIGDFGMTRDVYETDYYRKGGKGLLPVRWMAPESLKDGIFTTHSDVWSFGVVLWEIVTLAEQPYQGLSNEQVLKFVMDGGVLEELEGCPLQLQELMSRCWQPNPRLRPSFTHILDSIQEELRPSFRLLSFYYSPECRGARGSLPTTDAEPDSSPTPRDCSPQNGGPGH
T5 sequence (P07947 whole entry): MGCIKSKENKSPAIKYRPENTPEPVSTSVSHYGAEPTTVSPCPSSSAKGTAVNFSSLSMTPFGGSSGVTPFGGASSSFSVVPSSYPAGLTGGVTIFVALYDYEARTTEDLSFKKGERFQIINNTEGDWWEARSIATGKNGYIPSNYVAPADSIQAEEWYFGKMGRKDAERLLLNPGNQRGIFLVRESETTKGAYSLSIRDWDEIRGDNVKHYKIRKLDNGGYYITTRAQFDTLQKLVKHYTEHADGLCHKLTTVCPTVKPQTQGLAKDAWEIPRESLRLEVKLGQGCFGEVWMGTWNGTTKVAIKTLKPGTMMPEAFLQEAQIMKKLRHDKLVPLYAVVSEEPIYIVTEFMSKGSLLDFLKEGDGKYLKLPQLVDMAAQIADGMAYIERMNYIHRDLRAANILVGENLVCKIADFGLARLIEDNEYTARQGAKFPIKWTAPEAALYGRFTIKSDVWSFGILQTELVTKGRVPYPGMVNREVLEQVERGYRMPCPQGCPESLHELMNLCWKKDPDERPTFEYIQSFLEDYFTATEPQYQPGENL
T2 sequence (O96013 whole entry): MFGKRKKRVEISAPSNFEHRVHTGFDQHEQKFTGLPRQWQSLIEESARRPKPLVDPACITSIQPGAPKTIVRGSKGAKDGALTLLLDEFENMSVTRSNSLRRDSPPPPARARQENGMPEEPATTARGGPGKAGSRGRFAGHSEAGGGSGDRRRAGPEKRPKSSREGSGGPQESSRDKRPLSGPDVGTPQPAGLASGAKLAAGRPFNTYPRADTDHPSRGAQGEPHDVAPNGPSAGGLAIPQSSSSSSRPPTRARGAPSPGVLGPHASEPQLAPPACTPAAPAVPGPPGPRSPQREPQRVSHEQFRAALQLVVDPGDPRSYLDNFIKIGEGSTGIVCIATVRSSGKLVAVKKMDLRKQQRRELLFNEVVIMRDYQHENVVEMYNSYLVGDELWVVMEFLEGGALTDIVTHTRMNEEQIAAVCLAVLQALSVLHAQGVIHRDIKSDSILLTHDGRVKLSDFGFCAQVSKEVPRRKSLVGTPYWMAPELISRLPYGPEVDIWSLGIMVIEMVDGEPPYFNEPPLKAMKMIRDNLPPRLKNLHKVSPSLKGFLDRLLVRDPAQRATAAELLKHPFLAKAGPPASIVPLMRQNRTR

CO[C@H]1CC[C@H](NC(=O)c2n[nH]cc2NC(=O)c2ccccc2)CC1 [Compound 4f, 4-Benzamido-N-(4-methoxycyclohexyl)-1H-pyrazole-3-carboxamide]
ratio HsGSK3β/TbGSK3 (HsGSK3β): >0.21
PKA activity compared to the control (PKA): 81%
PAK4 activity compared to the control (PAK4): 68%
IRR activity compared to the control (IRR): 39%
CAMK1 activity compared to the control (CAMK1): 36%
YES1 activity compared to the control (YES1): 100%
CK1 activity compared to the control (CK1): 55%
EPH-B3 activity compared to the control (EPH-B3): 60%
NEK2a activity compared to the control (NEK2a): 100%
MSK1 activity compared to the control (MSK1): 80%

COc1cccc(OC)c1C(=O)Nc1c[nH]nc1C(=O)NC1CCC(OC)CC1 (stereo not drawn) [Compound 4m, 4-(2,6-Dimethoxybenzamido)-N-(4-methoxycyclohexyl)-1H-pyrazole-3-carboxamide]
ratio HsGSK3β/TbGSK3 (HsGSK3β): <2.5
PKA activity compared to the control (PKA): 74%
PAK4 activity compared to the control (PAK4): 74%
IRR activity compared to the control (IRR): 87%
CAMK1 activity compared to the control (CAMK1): 76%
YES1 activity compared to the control (YES1): 79%
CK1 activity compared to the control (CK1): 88%
EPH-B3 activity compared to the control (EPH-B3): 100%
NEK2a activity compared to the control (NEK2a): 99%
MSK1 activity compared to the control (MSK1): 86%

CO[C@H]1CC[C@H](NC(=O)c2n[nH]cc2NC(=O)c2ccc(-c3ccccc3)o2)CC1 [Compound 4y, N-(4-Methoxycyclohexyl)-4-(5-phenylfuran-2-carboxamido)-1H-pyrazole-3-carboxamide]
ratio HsGSK3β/TbGSK3 (HsGSK3β): <0.72
PKA activity compared to the control (PKA): 76%
PAK4 activity compared to the control (PAK4): 27%
IRR activity compared to the control (IRR): 26%
CAMK1 activity compared to the control (CAMK1): 46%
YES1 activity compared to the control (YES1): 45%
CK1 activity compared to the control (CK1): 25%
EPH-B3 activity compared to the control (EPH-B3): 72%
NEK2a activity compared to the control (NEK2a): 69%
MSK1 activity compared to the control (MSK1): 66%
